Data on 13 molecules can be found in PubChem BioAssay (NCI).

Common to all, as to assay: growth of human tumour cells (NCI), 48 h
For assay [1], the system named is NCI-H460 lung.
Assay [2] deals with OVCAR-8 ovarian.
The subject of assay [3] is T-47D breast.
Assay [4] has as its system HCC-2998 colon.
The test system of assay [5] is HCT-116 colon.
For assay [6], the system named is HT29 colon.
Assay [7] has as its system A498 renal.
For assay [8], the system named is RXF 393 renal.
The subject of assay [9] is MALME-3M melanoma.
Assay [10] concerns RPMI-8226 leukemia.

“And” between values parts separate entries of the source, which are not always exact repeats. Identical values can stand only once.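 Dose response: 5 concentrations. Exposure: 48 h. Format: 96-well plates. Endpoint: linear interpolation; highest concentration if not reached. The concentration for 50% growth inhibition is given as GI50. TGI is the concentration that stops growth completely.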 Bounds are passed on as bounds.

In the case of `Cc1ccc(Nc2nnc(-c3ccc4c(c3)OCO4)o2)c(C)c1`, the TGI in assay [1], in assay [2], in assay [3], in assay [4], in [5] and in assay [6] was > 100 µM throughout. Moreover, the TGI in [7], in [8], in assay [9] and in [10] was > 100 µM in each case.

In the case of `CC/C=C/C/C=C/C/C=C/C/C=C/C/C=C/C/C=C/CCC(=O)Nc1ccn([C@@H]2O[C@H](CO)[C@@H](O)C2(F)F)c(=O)n1`, the GI50 in assay [1] is 0.0199 µM; in [2], 0.0345 µM; in assay [3], 0.174 µM; in [4], 14.9 µM; in [5], 0.0873 µM; in assay [6], 0.138 µM. For the same molecule, the GI50 in assay [7] was 0.0566 µM; in assay [8], 0.169 µM; in [9] it was 9.33 µM; in assay [10] it was 0.245 µM. The TGI in [1] is 12.1 µM; in [2] it was 9.55 µM; in assay [3] it was 54.4 µM; in assay [4], > 64.4 µM; in assay [5], 29.8 µM; in [6] it was 19.5 µM. Also, the TGI in assay [7] was found to be 44.4 µM; in [8], 18.3 µM; in assay [9], 24.2 µM; in assay [10], 39 µM.

As for `COc1ccc(/C=C(/c2ccccc2)[N+](=O)[O-])cc1`, the GI50 was 2.04 µM in assay [1]; 2.08 µM in assay [2]; 1.2 µM in [3]; 1.75 µM in assay [4]; 1.03 µM in assay [5]; 2.04 µM in assay [6]. Further, the GI50 was 1.01 µM in assay [7], 1.35 µM in assay [8], 1.42 µM in [9] and 0.486 µM in assay [10]. Also, the TGI came to 4.16 µM in [1]; 6.3 µM in assay [2]; 4.5 µM in [3]; 3.22 µM in assay [4]; 2.29 µM in assay [5]; 11.3 µM in assay [6]. Besides, the TGI stood at 2.24 µM in [7], 2.78 µM in [8], 2.94 µM in assay [9] and 3.01 µM in [10].

Take `C[C@]12CC[C@@H]3c4ccc(O)c([N+](=O)[O-])c4CC[C@H]3[C@@H]1CC[C@@H]2NS(=O)(=O)c1cccc(Br)c1`: the GI50 in assay [1] was 1.81 µM; in [2], 2.92 µM; in assay [3], 1.8 µM; in assay [4], 2.06 µM; in [5], 1.92 µM; in assay [6], 1.94 µM. Moreover, the GI50 in [7] was 2.06 µM; in [8], 2.03 µM; in assay [9] it was 2.17 µM; in [10] it was 2.44 µM. In addition, the TGI stood at 3.56 µM in assay [1]; 10.7 µM in assay [2]; 3.96 µM in assay [3]; 3.97 µM in assay [4]; 4.17 µM in assay [5]; 3.92 µM in [6]. The TGI amounted to 5.87 µM in assay [7], 4.21 µM in assay [8], 5.4 µM in assay [9] and 6.27 µM in assay [10].

For `CC1C(=O)OC2CC[N+]3([O-])CC=C(COC(=O)C(C)(O)C1(C)O)C23` (stereo not given), the TGI in [1], in assay [2], in [3], in assay [4], in assay [5] and in [6] was > 100 µM each time. Moreover, the TGI in assay [7], in assay [8], in assay [9] and in assay [10] was > 100 µM in each case.

Consider `COCOc1ccc(C2(O)Oc3cc(OCOC)ccc3C2C)c(O)c1` (stereo not given), for which the TGI in assay [1] was found to be 27.1 µM; in assay [2] it was 32 µM; in assay [3] it was 25.8 µM; in assay [4], 26.6 µM; in assay [5], 27.6 µM; in assay [6], 32.2 µM. Moreover, the TGI in assay [7] was 28.8 µM; in assay [8], 31.1 µM; in [9], 28.7 µM; in assay [10], > 100 µM.

Take `O=c1[nH]c(=O)n([C@H]2CCCO2)cc1F`: the GI50 in assay [1] is 291 µM; in assay [2], 2270 µM; in assay [3], 2610 µM; in assay [4], 1010 µM; in assay [5] it was 1020 µM; in [6], 1370 µM. The GI50 in [7] is > 2170 µM; in assay [8] it was 1060 µM; in assay [9], 1360 µM; in [10], 666 µM. For the same molecule, the TGI in assay [1] is 830 µM and > 3640 µM; in assay [2] it was > 5000 µM; in assay [3], > 5000 µM; in assay [4], > 3020 µM; in [5], > 5000 µM; in [6], > 5000 µM. The TGI in [7] was 979 µM and > 5000 µM; in [8], > 5000 µM; in [9], > 5000 µM; in [10] it was > 5000 µM.

In the case of `COc1ccc2c(Oc3ccc(NC(=O)c4c(C)n(CC(C)(C)O)n(-c5ccccc5)c4=O)nc3)ccnc2c1`, the GI50 in assay [1] was 13.6 µM; in [2] it was 9.48 µM; in assay [3] it was 25.4 µM; in assay [4], 34 µM; in [5], 8.55 µM; in assay [6], 21.6 µM. Besides, the GI50 in assay [7] is 4.41 µM; in [8] it was 3.38 µM; in assay [9], 9.06 µM; in [10], 10.7 µM. The TGI in assay [1] was > 100 µM; in assay [2], > 100 µM; in [3], > 100 µM; in assay [4], > 100 µM; in assay [5], > 64.3 µM; in assay [6] it was > 91.1 µM. For the same molecule, the TGI in assay [7] was 85.1 µM; in assay [8] it was 41.5 µM; in assay [9], 51.1 µM; in [10], > 79.3 µM.

`Cc1cc(C)n(-c2nnc3n2N=C(c2ccc(-c4ccccc4)cc2)CS3)n1`: the GI50 in [1] was 3.35 µM; in assay [2], 3.51 µM; in assay [3] it was 4.05 µM; in [4], 5.14 µM; in [5], 3.39 µM; in assay [6], 3.11 µM. The GI50 was 2.03 µM in [7], 2.08 µM in assay [8], 3.44 µM in [9] and 3.18 µM in assay [10]. For the same molecule, the TGI in [1] is > 100 µM; in assay [2] it was > 100 µM; in assay [3] it was > 100 µM; in assay [4] it was > 100 µM; in [5], > 100 µM; in assay [6] it was 12.1 µM. In addition, the TGI in assay [7] was 7.09 µM; in [8], 6.51 µM; in [9] it was 17 µM; in assay [10], > 100 µM.

Take `CC(O)CC(O)(C(F)(F)F)C(F)(F)F` (stereo not given): the TGI in [1], in assay [2], in assay [3], in [4], in [5] and in assay [6] was > 10 µM throughout. For the same molecule, the TGI in assay [7], in [8], in [9] and in assay [10] was > 10 µM throughout.

As to `C/C(=N\NC(=S)N1CC2CCC(CC2)C1)c1ccccn1`, the GI50 in assay [1] is 0.044 µM; in assay [2], < 0.0209 µM; in [3], 0.0113 µM; in assay [4], 0.171 µM; in [5] it was < 0.01 µM; in assay [6] it was < 0.014 µM. Also, the GI50 in assay [7] was 0.416 µM; in assay [8], 0.226 µM; in [9], 0.121 µM; in assay [10], 0.0368 µM. Moreover, the TGI is 1.37 µM in assay [1]; 1.53 µM in [2]; 1.39 µM in [3]; 1.8 µM in assay [4]; 1.15 µM in assay [5]; 1.67 µM in [6]. For the same molecule, the TGI in assay [7] turned out to be 1.91 µM; in assay [8], 1.3 µM; in [9] it was 1.49 µM; in assay [10] it was 0.78 µM.

On to `CC(C)C1=C2CCC3(C)C(CCC4C5C6OCC5(CCC6(C)C)CCC43C)C2(C)CC1` (stereo not given), for which the TGI in assay [1] worked out at 31.8 µM; in assay [2], 34.4 µM; in [3], 63 µM; in [4], 33.7 µM; in assay [5], 34.4 µM; in [6], 37 µM. The TGI in assay [7] turned out to be 36.7 µM; in [8], 48.8 µM; in assay [9], 38.6 µM; in assay [10] it was 42.9 µM.

As to `CC1=C(C(=O)Nc2ccccc2)C(c2ccc(C3C(C(=O)Nc4ccccc4)=C(C)NC(C)=C3C(=O)Nc3ccccc3)cc2)C(C(=O)Nc2ccccc2)=C(C)N1`, the TGI in [1] was found to be 8.29 µM; in [2] it was 11.2 µM; in assay [3], 16.2 µM; in assay [4], 5.74 µM; in assay [5], 4.52 µM; in assay [6] it was 3.77 µM. The TGI in assay [7] is 24 µM; in assay [8], 3.87 µM; in [9], 4.33 µM; in [10], 13.8 µM.
